Read-outs that look alike come from different tables or passages of the source.
What was measured:
Type in all cases: cell-based
[1] = test system: SARS-CoV-2 PsV B.1.1.529 (Omicron); assay: microbe, parasite or virus in culture; details: Omicron variant, Vero-TMPRSS2 cells
SARS-CoV-2 PsV D614G [2] = details: read-out: IC50, inhibition of PsV entry
SARS-CoV-2 PsV D614G [3] = details: read-out: IC50, inhibition of PsV entry; remark: listed apart in the source

What does the source list for CN(C)C(=O)COC(=O)Cc1ccc(OC(=O)c2ccc(NC(=N)N)cc2)cc1 [Camostat]?
inhibition of PsV entry (in words) [1]: unable to inhibit; IC50 (SARS-CoV-2 PsV D614G [2]): 199 nM; IC50 (SARS-CoV-2 PsV D614G [3]): > 300000 nM
